Data reported in patent US10746738B2, “Claudin-1 peptide reagents and methods” (THE REGENTS OF THE UNIVERSITY OF MICHIGAN, priority 2015, dated 2020).
Entries after “also recorded” stand apart in the source; their conditions may differ.

Assays:
[1] = test system: proximal human colon specimens; assay: Immunofluorescence of proximal human colon with claudin-1 peptide and antibody
Description: Formalin-fixed, paraffin-embedded (FFPE) specimens from human proximal colon were obtained from the archived tissue bank in the Department of Pathology at the University of Michigan. 5 μm thick sections were cut, mounted onto glass slides (Superfrost Plus, Fischer Scientific). The tissues were deparaffinized using a standard protocol. The sections were incubated with 3 rounds of xylene (3 min each) and 2 rounds of 100% and 95% ethanol (2 min each), and hydrated with water for 5 min. Antigen retrieval was performed with 10 mM citric acid buffer containing 0.05% Tween 20; pH 6.0. The specimens were placed in a citric acid buffer, maintained at a sub-boiling temperature for 15 min, and then allowed to cool to RT for 30 min. […] Confocal fluorescence images were collected with using a 63× oil immersion objective (Leica TCS SP5 Microsystems). […]
The mean fluorescence intensities from 3 boxes with dimensions of 20×20 μm2 placed completely within the surface epithelium of each image was measured for RTS*-Cy5.5 using custom Matlab software (MathWorks Inc). […]
Co-localization of peptide and antibody binding can be appreciated on these merged images, and the extent is characterized by the Pearson's correlation coefficient ρ. We measured the fluorescence intensities from binding of the RTS*-Cy5.5 peptide in a set of 3 boxes with dimensions of 20×20 μm^2 located at random on cells in the epithelium.

claudin-1 (CLDN1) = target: T1, claudin-1 (CLDN1) (Homo sapiens, UniProt O95832); assay: siRNA knockdown of CLDN1 expression, peptide and antibody binding to SW620 cells; assay type: cell-based
T1 construct: endogenous in cells; host or cells: SW620 human colorectal adenocarcinoma cells
T1 sequence (O95832 1-211): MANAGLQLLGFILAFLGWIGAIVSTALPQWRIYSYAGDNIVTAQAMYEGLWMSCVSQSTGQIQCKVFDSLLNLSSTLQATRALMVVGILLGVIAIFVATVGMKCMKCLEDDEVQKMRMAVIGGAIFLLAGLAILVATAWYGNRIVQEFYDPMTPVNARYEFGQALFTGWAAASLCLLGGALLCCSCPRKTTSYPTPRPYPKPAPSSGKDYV
Description: CLDN1 expression was knocked down using Dharmacon On-Target Plus SMARTpool Human CLDN1 siRNA (Thermo Scientific) according to the manufacturer's protocol. SW620 cells were plated overnight on coverslips in a 12-well plate at 0.2×10^6 cells/mL. The following day, cells were transfected with 3 μL DharmaFECT1 and either 25 nM CLDN1 or control siRNA. After 72 h, transfected cells were analyzed for CLDN1 expression through immunocytochemistry, a peptide binding study, or a Western blot of the cell lysate. For the immunocytochemistry experiment, cells were fixed with ice-cold methanol for 20 minutes at −20° C., blocked for 1 h at RT with PBS+2% BSA, stained with anti-human CLDN1 antibody at 5 μg/mL for 1 h at RT, then with goat anti-Rabbit AF488 (1:500) for 1 h at RT before being mounted on slides with DAPI with Prolong Gold. siRNA-transfected cells were also stained with 5 μM RTS-Cy5.5 or SPT-Cy5.5 for 30 minutes at 4° C., fixed with 4% PFA for 10 minutes at RT, then mounted on slides. Simultaneously, transfected cells were lysed with RIPA buffer containing Roche Mini-Complete EDTA-free Protease Inhibitor for 10 minutes on ice, collected and spun at 20,000×g for 10 minutes at 4° C. Supernatant was saved, total protein concentration quantified via a BCA assay, and 10 ug protein of each sample run on a Novex 4-20% 1.5 mm protein gel before transferring to a PVDF membrane. The membrane was blocked with PBST+5% non-fat milk for 1 h at 4° C., stained with either rabbit anti-CLDN1 Ab or mouse anti-tubulin Ab at 4° C. overnight, then with anti-rabbit HRP (1:500, for CLDN1) or anti-mouse HRP (1:500, for tubulin) for 1 h at RT before developing.
The specificity of peptide binding was validated on siRNA knockdown. […] These cells were transfected with siRNA to knockdown cell surface expression of claudin-1. […] The fluorescence intensities (mean±std) are shown (FIG. 2H). […] Given the experimental design and mean-squared-errors shown in FIG. 2H, with triplicate slides we have 98% power to obtain P<0.01 for interactions that show a 3-fold difference of differences.

SW620 cells = assay: Apparent association time constant by flow cytometry; assay type: binding, human; details: 5 μM, 4° C.
Description: To measure the apparent association time constant of RTS*-Cy5.5, SW620 cells were washed two times with PBS+0.5% BSA, then 1×10^5 cells were incubated with 5 μM RTS*Cy5.5 at 4° C. for different time intervals ranging from 2-15 min. The cells were immediately washed of unbound peptide several times with PBS+0.5% before analyzing via flow cytometry. The mean fluorescent intensity of SW620 cells at the various time points was ratioed with that of untreated cells and used to calculate the rate constant, k, by fitting the data to a first order kinetics model, y(t)=Imax[1−exp^(−kt)], using Origin 6.1 software.
To measure the apparent association time constant of RTS*-Cy5.5, SW620 cells were washed 2× with PBS+0.5% BSA, then ˜10^5 cells were incubated with 5 μM RTS*-Cy5.5 at 4° C. for time intervals ranging from 2-15 min. The cells were immediately washed of unbound peptide 5× with PBS+0.5% BSA before analyzing with flow cytometry. The mean fluorescence intensity of SW620 cells at the various time points was ratioed with that of untreated cells and used to calculate the rate constant k by fitting the data to a first order kinetics model, y(t)=Imax[1−exp^(−kt)], using Origin 6.1 software. An apparent association time constant k=0.83 min^−1 which corresponds to <1.2 min was measured.

signal for siCL versus siCLDN1 cells (claudin-1 (CLDN1); SW620 cells, control siRNA versus CLDN1 siRNA, 3 replicate slides): 10.5 fold-change
binding to the surface of SW620 cells (claudin-1 (CLDN1); confocal microscopy): strong binding
Substance: RTS*-Cy5.5: RTSPSSR labeled at the C-terminus with Cy5.5 via a GGGSK linker
binding on confocal microscopy ([1]; normal colonic mucosa and hyperplastic polyps): minimal fluorescence intensity; also recorded: minimal binding
binding on confocal microscopy ([1]; sessile serrated adenomas (SSA) and adenomas): strong binding; also recorded: found to bind; also recorded: Strong staining
time corresponding to association time constant (SW620 cells): < 1.2 min
apparent association time constant k (SW620 cells; 2-15 min): 0.83 min⁻¹
